Measurements: patent publication US20210188856A1, “CRYSTAL FORM OF HYDROCHLORIDE OF PYRAZOLOHETEROARYL DERIVATIVE AND PREPARATION METHOD” (JIANGSU HENGRUI MEDICINE CO., LTD., priority 2018, published 2021)

Experiment: Influencing factors stability (heating, light illumination, high humidity; spread and uncovered, 20 days)
Format: physicochemical
Settings: for Maximum single impurity / Purity / Total impurities: monohydrochloride; for stability under the influencing factor conditions (in words): light illumination
Procedure: Example 6: the crystal form I of the dihydrochloride salt of the compound represented by formula (I) (example 1) was spread and uncovered, and the steadily of the sample was evaluated under heating (40° C., 60° C.), light illumination (4500 Lux), and high humidity (RH 75%, RH 90%) with a period of 20 days.
(§1) Example 10: the crystal form A (example 7) of the monohydrochloride salt of the compound of formula (I) was spread and uncovered, and the stability of the sample was evaluated under heating (40° C., 60° C.), light illumination (4500 Lux), high humidity (RH 75%, RH 90%) conditions with a period of 20 days.
as §1, with “Example 11:” for “Example 10:”, “form B” for “form A (example 7)”, “compound represented by” for “compound of”, “(I) (example 8)” for “(I)”
as §1, with “Example 12:” for “Example 10:”, “form C” for “form A (example 7)”, “compound represented by” for “compound of”, “(I) (example 9)” for “(I)”

[1] = light illumination (4500 Lux), 4 days
[2] = light illumination (4500 Lux), 10 days
[3] = light illumination (4500 Lux), 20 days
[4] = 40° C., 60° C., 75% RH, 90% RH, 20 days

Q: For `CCCCOc1nc(N)c2cnn(Cc3ccc(CN4CCCC4)cc3)c2n1.Cl` [crystal form B, 6-butoxy-1-(4-(pyrrolidin-1-ylmethyl)benzyl)-1H-pyrazolo[3,4-d]pyrimidin-4-amine monohydrochloride], which Maximum single impurity (0 day) is on record?
A: The Maximum single impurity was 0.10%.

Q: What about the Purity (0 day) of the same molecule?
A: The Purity was 99.54%.

Q: And the Total impurities (0 day)?
A: Its Total impurities is 0.46%.

Q: What about the Maximum single impurity (40° C., 4 days) of the same molecule?
A: Its Maximum single impurity is 0.19%.

Q: What about the Purity (40° C., 4 days) of the same molecule?
A: Its Purity is 99.31%.

Q: And the Total impurities (40° C., 4 days)?
A: Its Total impurities is 0.69%.

Q: What about the Maximum single impurity (40° C., 10 days) of the same molecule?
A: Its Maximum single impurity is 0.10%.

Q: And the Purity (40° C., 10 days)?
A: Its Purity is 99.53%.

Q: And the Total impurities (40° C., 10 days)?
A: The Total impurities was 0.47%.

Q: And the Maximum single impurity (40° C., 20 days)?
A: Its Maximum single impurity is 0.14%.

Q: What about the Purity (40° C., 20 days) of the same molecule?
A: The Purity was 99.39%.

Q: And the Total impurities (40° C., 20 days)?
A: Its Total impurities is 0.61%.

Q: What about the Maximum single impurity (60° C., 4 days) of the same molecule?
A: Its Maximum single impurity is 0.14%.

Q: What about the Purity (60° C., 4 days) of the same molecule?
A: Its Purity is 99.34%.

Q: What about the Total impurities (60° C., 4 days) of the same molecule?
A: The Total impurities was 0.66%.

Q: What about the Maximum single impurity (60° C., 10 days) of the same molecule?
A: The Maximum single impurity was 0.10%.

Q: And the Purity (60° C., 10 days)?
A: The Purity was 99.42%.

Q: And the Total impurities (60° C., 10 days)?
A: Its Total impurities is 0.58%.

Q: And the Maximum single impurity (60° C., 20 days)?
A: The Maximum single impurity was 0.10%.

Q: And the Purity (60° C., 20 days)?
A: The Purity was 99.21%.

Q: And the Total impurities (60° C., 20 days)?
A: The Total impurities was 0.79%.

Q: What about the Maximum single impurity (75% RH, 4 days) of the same molecule?
A: Its Maximum single impurity is 0.11%.

Q: What about the Purity (75% RH, 4 days) of the same molecule?
A: Its Purity is 99.54%.

Q: What about the Total impurities (75% RH, 4 days) of the same molecule?
A: Its Total impurities is 0.46%.

Q: And the Maximum single impurity (75% RH, 10 days)?
A: The Maximum single impurity was 0.10%.

Q: And the Purity (75% RH, 10 days)?
A: Its Purity is 99.61%.

Q: What about the Total impurities (75% RH, 10 days) of the same molecule?
A: Its Total impurities is 0.39%.

Q: And the Maximum single impurity (75% RH, 20 days)?
A: Its Maximum single impurity is 0.10%.

Q: What about the Purity (75% RH, 20 days) of the same molecule?
A: The Purity was 99.57%.

Q: What about the Total impurities (75% RH, 20 days) of the same molecule?
A: The Total impurities was 0.43%.

Q: And the Maximum single impurity (90% RH, 4 days)?
A: The Maximum single impurity was 0.10%.

Q: And the Purity (90% RH, 4 days)?
A: The Purity was 99.54%.

Q: And the Total impurities (90% RH, 4 days)?
A: The Total impurities was 0.46%.

Q: What about the Maximum single impurity (90% RH, 10 days) of the same molecule?
A: The Maximum single impurity was 0.10%.

Q: What about the Purity (90% RH, 10 days) of the same molecule?
A: Its Purity is 99.61%.

Q: And the Total impurities (90% RH, 10 days)?
A: Its Total impurities is 0.39%.

Q: What about the Maximum single impurity (90% RH, 20 days) of the same molecule?
A: Its Maximum single impurity is 0.10%.

Q: And the Purity (90% RH, 20 days)?
A: The Purity was 99.59%.

Q: And the Total impurities (90% RH, 20 days)?
A: Its Total impurities is 0.41%.

Q: What about the Maximum single impurity [1] of the same molecule?
A: Its Maximum single impurity is 0.10%.

Q: What about the Purity [1] of the same molecule?
A: The Purity was 99.51%.

Q: And the Total impurities [1]?
A: Its Total impurities is 0.49%.

Q: What about the Maximum single impurity [2] of the same molecule?
A: Its Maximum single impurity is 0.10%.

Q: What about the Purity [2] of the same molecule?
A: The Purity was 99.56%.

Q: And the Total impurities [2]?
A: Its Total impurities is 0.44%.

Q: What about the Maximum single impurity [3] of the same molecule?
A: Its Maximum single impurity is 0.11%.

Q: What about the Purity [3] of the same molecule?
A: The Purity was 99.45%.

Q: And the Total impurities [3]?
A: The Total impurities was 0.55%.

Q: And the “stability under the influencing factor conditions (in words)” value [4]?
A: The value was “good”.

Q: What does the source list for `CCCCOc1nc(N)c2cnn(Cc3ccc(CN4CCCC4)cc3)c2n1.Cl` [crystal form C, 6-butoxy-1-(4-(pyrrolidin-1-ylmethyl)benzyl)-1H-pyrazolo[3,4-d]pyrimidin-4-amine monohydrochloride]?
A: Maximum single impurity (0 day): 0.10%; Purity (0 day): 99.55%; Total impurities (0 day): 0.45%; Maximum single impurity (40° C., 4 days): 0.10%; Purity (40° C., 4 days): 99.55%; Total impurities (40° C., 4 days): 0.45%; Maximum single impurity (40° C., 10 days): 0.10%; Purity (40° C., 10 days): 99.60%; Total impurities (40° C., 10 days): 0.40%; Maximum single impurity (40° C., 20 days): 0.10%; Purity (40° C., 20 days): 99.53%; Total impurities (40° C., 20 days): 0.47%; Maximum single impurity (60° C., 4 days): 0.10%; Purity (60° C., 4 days): 99.50%; Total impurities (60° C., 4 days): 0.50%; Maximum single impurity (60° C., 10 days): 0.10%; Purity (60° C., 10 days): 99.58%; Total impurities (60° C., 10 days): 0.42%; Maximum single impurity (60° C., 20 days): 0.13%; Purity (60° C., 20 days): 99.42%; Total impurities (60° C., 20 days): 0.58%; Maximum single impurity (75% RH, 4 days): 0.11%; Purity (75% RH, 4 days): 99.55%; Total impurities (75% RH, 4 days): 0.45%; Maximum single impurity (75% RH, 10 days): 0.09%; Purity (75% RH, 10 days): 99.61%; Total impurities (75% RH, 10 days): 0.39%; Maximum single impurity (75% RH, 20 days): 0.10%; Purity (75% RH, 20 days): 99.57%; Total impurities (75% RH, 20 days): 0.43%; Maximum single impurity (90% RH, 4 days): 0.11%; Purity (90% RH, 4 days): 99.51%; Total impurities (90% RH, 4 days): 0.49%; Maximum single impurity (90% RH, 10 days): 0.10%; Purity (90% RH, 10 days): 99.61%; Total impurities (90% RH, 10 days): 0.39%; Maximum single impurity (90% RH, 20 days): 0.10%; Purity (90% RH, 20 days): 99.58%; Total impurities (90% RH, 20 days): 0.42%; Maximum single impurity [1]: 0.11%; Purity [1]: 99.57%; Total impurities [1]: 0.43%; Maximum single impurity [2]: 0.09%; Purity [2]: 99.64%; Total impurities [2]: 0.36%; Maximum single impurity [3]: 0.10%; Purity [3]: 99.54%; Total impurities [3]: 0.46%; stability under the influencing factor conditions (in words) [4]: good
